Data on ten compounds can be found in ChEMBL document CHEMBL4433235, “Discovery of piperazic acid peptide deformylase inhibitors with in vivo activity for respiratory tract and skin infections” (Bioorg Med Chem Lett, 2019).

Values after ≈ are worked out from the molar mass of the structure shown. Some results are limits rather than exact numbers.

Data set [1] deals with Haemophilus influenzae. Briefly: Antimicrobial activity against Haemophilus influenzae Q1. The format is functional.
Data set [2] in a line: Solubility of compound by chemiluminescent nitrogen detection assay. The format is physicochemical.
Data set [3] has as its system Streptococcus pneumoniae. The data set can be described thus: Antimicrobial activity against Streptococcus pneumoniae 1629. The class given is functional.
Data set [4] can be described thus: Inhibition of Streptococcus pneumoniae PDF by absorbance detection assay.
Data set [5] concerns Staphylococcus aureus. Briefly: Antimicrobial activity against Staphylococcus aureus Oxford. The class given is functional.
A short description of data set [6]: Chromatographic hydrophobicity index, log D of compound at pH 7.4. The format is physicochemical. The following applies: buffer.
Data set [7] has as its target T1, Peptide deformylase (Staphylococcus aureus, UniProt P68826).
T1 sequence (P68826 whole entry): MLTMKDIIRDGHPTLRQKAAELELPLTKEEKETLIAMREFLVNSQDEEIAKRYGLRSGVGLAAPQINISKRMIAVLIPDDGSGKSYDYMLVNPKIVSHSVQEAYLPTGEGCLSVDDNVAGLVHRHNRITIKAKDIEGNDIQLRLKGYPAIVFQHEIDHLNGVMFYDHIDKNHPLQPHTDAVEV
The data set can be described thus: Inhibition of Staphylococcus aureus PDF by absorbance detection assay.

Data set [8] can be described thus: Inhibition of Haemophilus influenzae PDF by absorbance detection assay.
For data set [9], the target named is T1, Peptide deformylase. The data set can be described thus: Inhibition of Staphylococcus aureus PDF by fluorescence detection assay.
Data set [10] in a line: Inhibition of Streptococcus pneumoniae PDF by fluorescence detection assay.
Data set [11] can be described thus: Inhibition of Haemophilus influenzae PDF by fluorescence detection assay.
Data set [12] relates to Staphylococcus aureus. Briefly: Antimicrobial activity against Staphylococcus aureus. The format is functional.
Data set [13] concerns Haemophilus influenzae. The data set can be described thus: Antimicrobial activity against Haemophilus influenzae. The format is functional.
For data set [14], the system named is Streptococcus pneumoniae. Briefly: Antimicrobial activity against Streptococcus pneumoniae. The format is functional.
Data set [15] deals with T2, Peptide deformylase (Escherichia coli, UniProt Q9JN24).
T2 sequence (Q9JN24 whole entry): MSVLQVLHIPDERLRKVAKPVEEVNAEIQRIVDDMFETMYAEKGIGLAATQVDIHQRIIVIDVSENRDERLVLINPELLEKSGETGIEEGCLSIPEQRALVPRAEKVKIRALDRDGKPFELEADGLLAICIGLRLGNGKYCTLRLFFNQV
The data set can be described thus: Inhibition of Escherichia coli PDF.

Data set [16] in a line: AUC in rat at 5 mg/kg, po. The class given is ADME, organism-based. The following applies: in vivo.
A short description of data set [17]: Oral bioavailability in rat at 5 mg/kg. The class given is ADME, organism-based. The settings on record: in vivo.
A short description of data set [18]: Cmax in rat at 5 mg/kg, po. The format is ADME, organism-based. Also on record: dose 5 mg/kg, route oral. The settings on record: in vivo.
The nature of data set [19]: Half life in rat at 3 mg/kg, iv. The settings on record: in vivo. The class given is ADME, organism-based.
A short description of data set [20]: Half life in rat at 5 mg/kg, po. The settings on record: in vivo. The format is ADME, organism-based.
The nature of data set [21]: AUC in rat at 3 mg/kg, iv. The following applies: in vivo. The class given is ADME, organism-based.
Data set [22] is described as follows: Volume of distribution at steady state in rat at 3 mg/kg, iv. The class given is ADME, organism-based. The following applies: in vivo, read-out: Vdss.
A short description of data set [23]: Clearance in rat at 3 mg/kg, iv. The format is ADME, organism-based. The settings on record: in vivo.

As a reminder, the kinetic solubility is solubility judged after dilution from a stock solution rather than from solid. As usually defined, the IC50 is the point on the concentration scale where inhibition reaches its midpoint. High values mean weaker potency, low ones greater potency. Regarding `O=CN(O)C[C@@H](CC1CCCC1)C(=O)N1NCCC[C@H]1C(=O)Nc1cnccn1`, the MIC in data set [1] is 0.25 µg/mL (≈ 0.618 µM); in data set [3], 8 µg/mL (≈ 19.8 µM); in data set [5], 2 µg/mL (≈ 4.94 µM). In addition, the kinetic solubility in data set [2] was over 586 µM. Besides, the results for the IC50 in data set [4], in [7] and in data set [8] were 0.3 nM, 1 nM and 3 nM, respectively. This compound showed a CHI in data set [6] of 2.87.

Take `CN(C)c1cccc(NC(=O)[C@@H]2CCCNN2C(=O)[C@H](CC2CCCC2)CN(O)C=O)n1`: the MIC in [1] is 4 µg/mL (≈ 8.96 µM); in data set [3], 0.5 µg/mL (≈ 1.12 µM); in [5], 4 µg/mL (≈ 8.96 µM). Also, the IC50 worked out at 20 nM in data set [9], 8 nM in [10] and 32 nM in data set [11]. In data set [2], this compound gave a solubility (kinetic) of over 364 µM. Also, the CHI in data set [6] was 4.88.

On to `Cc1ccc(NC(=O)[C@@H]2CCCNN2C(=O)[C@H](CC2CCCC2)CN(O)C=O)nc1`, for which the values for the MIC in [1], in [3] and in [5] were 1 µg/mL (≈ 2.4 µM), 2 µg/mL (≈ 4.79 µM) and 1 µg/mL (≈ 2.4 µM), respectively. Besides, the IC50 worked out at 2 nM in data set [9], 0.6 nM in data set [10] and 25 nM in [11]. Also, the MIC90 in data set [12] is 1 µg/mL (≈ 2.4 µM); in data set [13] it was 4 µg/mL (≈ 9.58 µM); in data set [14], 2 µg/mL (≈ 4.79 µM). This compound showed a solubility (kinetic) in data set [2] of over 565 µM. Further, the CHI in data set [6] is 4.1.

Usually Ki stands for the dissociation constant of the complex between target and ligand, obtained from inhibition or displacement. A higher Ki goes with a looser hold on the target. As for `CCC(=O)[C@@H](NC(=O)[C@@H]1CCCNN1C(=O)[C@@H](CC(=O)O)CC(C)C)C(C)C`, the Ki in [15] turned out to be 60 nM.

For `O=CN(O)C[C@@H](CC1CCCC1)C(=O)N1NCCC[C@H]1C(=O)Nc1cccc2c1COB2O`, the figures for the MIC in data set [1], in data set [3] and in [5] were 0.5 µg/mL (≈ 1.09 µM), 8 µg/mL (≈ 17.5 µM) and 2 µg/mL (≈ 4.36 µM), respectively. Also, the IC50 worked out at 158 nM in data set [9], 40 nM in [10] and 79 nM in [11]. The kinetic solubility in data set [2] is over 544 µM. The compound further had a CHI in data set [6] of 3.2.

In general, AUC refers to the area under the concentration-time curve, a measure of exposure. A higher AUC goes with more exposure. By bioavailability is commonly meant dose-corrected exposure relative to a reference, in per cent. As a reminder, the Cmax is the highest concentration seen after dosing. In general, half-life refers to how long it takes for the measured level to halve. High values mean slow loss, low ones fast loss. Usually clearance stands for the rate of elimination divided by the concentration. Low values mean a low capacity for elimination, high ones a high capacity for elimination. Take `CN(C)c1cncc(NC(=O)[C@@H]2CCCNN2C(=O)[C@H](CC2CCCC2)CN(O)C=O)n1`: the AUC in data set [16] came to 169 ng·h/mL; in data set [21], 685 ng·h/mL. The bioavailability in data set [17] stood at 15%. Also, the MIC in [1], in data set [3] and in [5] was 1 µg/mL (≈ 2.23 µM) in each case. In addition, the peak level in data set [18] (Cmax) was 53 ng/mL. For the same compound, the IC50 came out at 5 nM in data set [9], 0.79 nM in [10] and 16 nM in [11]. In [2], this compound had a kinetic solubility of over 515 µM. The half-life was 7 h in data set [19] and 10 h in data set [20]. Also, the Vd in [22] was 13 L/kg. The same compound yielded a clearance in [23] of 73 mL/min/kg. In data set [6], this compound showed a CHI of 3.65.

`O=CN(O)C[C@@H](CC1CCCC1)C(=O)N1NCCC[C@H]1C(=O)Nc1ccc(F)cn1`: the MIC in data set [1] was 0.5 µg/mL (≈ 1.19 µM); in data set [3] it was 1 µg/mL (≈ 2.37 µM); in data set [5], 0.5 µg/mL (≈ 1.19 µM). Moreover, the figures for the MIC90 in data set [12], in data set [13] and in data set [14] were 1 µg/mL (≈ 2.37 µM), 2 µg/mL (≈ 4.75 µM) and 2 µg/mL (≈ 4.75 µM), respectively. In data set [2], this compound displayed a solubility (kinetic) of over 739 µM. The IC50 in data set [4] worked out at 0.6 nM; in [7], 2 nM. The CHI in [6] stood at 4.13.

For `CN(C(=O)[C@@H]1CCCNN1C(=O)[C@H](CC1CCCC1)CN(O)C=O)c1ccccn1`, the MIC in data set [1] stood at 4 µg/mL (≈ 9.58 µM); in [3], 2 µg/mL (≈ 4.79 µM); in data set [5], 4 µg/mL (≈ 9.58 µM). Besides, in data set [2], the solubility (kinetic) is over 657 µM. The figures for the IC50 in data set [4], in data set [7] and in [8] were 8 nM, 18 nM and 15 nM, respectively. Besides, the CHI in data set [6] is recorded as 3.3.

`Cc1cccnc1NC(=O)[C@@H]1CCCNN1C(=O)[C@H](CC1CCCC1)CN(O)C=O`: the MIC in [1] was 2 µg/mL (≈ 4.79 µM); in data set [3] it was 8 µg/mL (≈ 19.2 µM); in data set [5], 8 µg/mL (≈ 19.2 µM). Besides, the concentration for half-maximal inhibition (IC50) in data set [9] worked out at 16 nM; in data set [10] it was 10 nM; in data set [11], 79 nM. This compound also returned a kinetic solubility in data set [2] of 483 µM (≈ 202 µg/mL). In data set [6], this compound showed a CHI of 2.94.

Consider `CN1CCN(c2cncc(NC(=O)[C@@H]3CCCNN3C(=O)[C@H](CC3CCCC3)CN(O)C=O)n2)CC1`, for which the MIC in [1] worked out at 2 µg/mL (≈ 3.98 µM); in data set [3], 4 µg/mL (≈ 7.96 µM); in [5], 16 µg/mL (≈ 31.8 µM). In addition, the IC50 turned out to be 10 nM in [9] and 2 nM in data set [10]. The compound further came in with a solubility (kinetic) in data set [2] of over 359 µM. In data set [6], this compound registered a CHI of 2.57.
